Assay results as given in article PMC5999526 (Shock (Augusta, Ga.), 2018).
Entries after “also recorded” stand apart in the source; their conditions may differ.

Assays:
[1] = system: pIκBα in CD14+ human blood monocytes; assay: pIκBα protein levels by immunoblot; format: cell-based; settings: LPS 10 ng/ml-induced monocytes, resveratrol 80 μM or ONX-0914 0.25 μM, 60 min preincubation
[2] = system: CD14+ human blood monocytes; assay: Gene expression by qRT-PCR in LPS-induced CD14+ monocytes; format: cell-based; settings: for expression of Bax / expression of Bcl2 / proteasome subunits RNA (X, Y, Z): resveratrol 80 μM or ONX-0914 0.25 μM; for LPS-induced atg7 expression / LPS-induced expression of resistin / expression of ICAM-1 / expression of IFNγ / expression of IL-8 / expression of LMP10 subunit / expression of Sirt-1 / expression of TNF-α / mRNA expression of LMP2 subunit / mRNA expression of LMP7 subunit: resveratrol 80 μM or ONX-0914 0.25 μM pretreatment 1h, LPS 10 ng/mL 4h; for proteasome subunits RNA (X, Y, Z): with LPS 10 ng/mL 4h
[3] = system: THP1 cells; assay: Cyto-ID autophagy detection assay, THP1 cells; format: cell-based, human; settings: 4h incubation, resveratrol 80 μM, ONX-0914 0.25 μM
[4] = system: purified human 20S proteasome and immunoproteasome, T-like activity; assay: Purified proteasome fluorescence assay, T-like activity; format: biochemical
[5] = system: purified human 20S proteasome and immunoproteasome, PA activity; assay: Purified proteasome fluorescence assay, PA activity; format: biochemical; settings: 50 μM dose, cell-free
[6] = system: CT-like proteasome activity in THP1 cells; assay: Cell-based proteasome activity, luminescence assay; design: species or system human; settings: read-out: IC50, CT-like activity (cellular), 30 min incubation
[7] = target: purified human 20S immunoproteasome (LMP subunits), PA activity (Homo sapiens, UniProt P28065); assay: Purified proteasome fluorescence assay, PA activity, immunoproteasome; format: biochemical
[8] = system: monocytes; assay: MTT and LDH cell death assay; settings: 80 μM, human monocytes, MTT, LDH or autophagy tests
[9] = MTT and LDH cell death assay; settings: human
[10] = system: T-like proteasome activity in THP1 cells; assay: Cell-based proteasome activity, luminescence assay; design: species or system human; settings: read-out: IC50, T-like activity (cellular), 30 min incubation
[11] = system: PA proteasome activity in THP1 cells; assay: Cell-based proteasome activity, luminescence assay; design: species or system human; settings: read-out: IC50, PA activity (cellular), 30 min incubation
[12] = system: CD14+ human blood monocytes; assay: Cyto-ID autophagy detection assay, blood monocytes; format: cell-based; settings: 4h incubation, resveratrol 80 μM
[13] = target: purified human 20S proteasome (X, Y and Z), CT-like activity (Homo sapiens, UniProt P28074); format: biochemical
[14] = target: purified human 20S proteasome, PA activity (Homo sapiens, UniProt P28072); assay: Purified proteasome fluorescence assay, PA activity, constitutive proteasome; format: biochemical
[15] = target: purified human 20S immunoproteasome (LMP7, LMP2 and LMP10), CT-like activity (Homo sapiens, UniProt P28062); assay: Purified proteasome fluorescence assay, CT-like activity, immunoproteasome; format: biochemical

SMILES | degradation of pIκBα protein [1] | expression of Bax [2] | expression of Bcl2 [2] | LPS-induced atg7 expression [2] | LPS-induced expression of resistin [2] | expression of ICAM-1 [2] | expression of IFNγ [2] | expression of IL-8 [2] | expression of LMP10 subunit [2] | expression of Sirt-1 [2] | expression of TNF-α [2] | mRNA expression of LMP2 subunit [2] | mRNA expression of LMP7 subunit [2] | proteasome subunits RNA (X, Y, Z) [2] | induction of autophagy [3] | further results
COc1ccc(C[C@H](NC(=O)[C@H](C)NC(=O)CN2CCOCC2)C(=O)N[C@@H](Cc2ccccc2)C(=O)C2(C)CO2)cc1 (stereo in doubt) [ONX-0914, reference compound] | inhibited pIκBα protein degradation | didn’t notice any effect | didn’t notice any effect | but not by ONX-0914 | decreased | significantly downregulated | significantly downregulated | significantly downregulated | no significant change | no significant upregulation | significantly downregulated | robust decrease | robust decrease | did not observe a significant change | resulted in autophagy and vacuole accumulation | inhibition of T-like activity ([4]; highest dose of ONX-0914, cell-free): didn’t observe any inhibition; inhibition of PA activity [5]: 30%
Oc1ccc(C=Cc2cc(O)cc(O)c2)cc1 [resveratrol, 3,5, 4′-trihydroxystilbene] | inhibited degradation of pIκBα protein levels | no change; also recorded: didn’t notice any effect | no change; also recorded: didn’t notice any effect | downregulated | decreased | significantly downregulated | significantly downregulated | significantly downregulated | no significant change | no significant upregulation | significantly downregulated | robust decrease | robust decrease | did not observe a significant change | did not induce autophagy | expression of beclin1, eIF2α, p53 and hdac6 genes ([2]; resveratrol 80 μM, with or without LPS 10 ng/mL): no significant change; IC50 [6]: 1.9 µM; IC50 [7]: 40.8 µM; cell death [8]: no cell death was observed; viability at 4 h, 100 μM [9]: > 90%; IC50 [10]: 5 µM; IC50 [11]: 1.37 µM; inhibition of T-like activity ([4]; 100 μM dose, cell-free): 33%; induction of autophagy [12]: did not induce autophagy; IC50 [13]: 59.4 µM; IC50 [14]: 52.9 µM; IC50 [15]: 39.8 µM
